Measured values as given in article PMC3914206.

How the values were obtained:
Format in all cases: binding
panel of 442 kinases [1] = target: T1, panel of 442 kinases (Homo sapiens, UniProt Q09013); conditions: Compound Concentration 10 µM
T1 construct: purchased KINOMEscan
T1 sequence (Q09013 1-629): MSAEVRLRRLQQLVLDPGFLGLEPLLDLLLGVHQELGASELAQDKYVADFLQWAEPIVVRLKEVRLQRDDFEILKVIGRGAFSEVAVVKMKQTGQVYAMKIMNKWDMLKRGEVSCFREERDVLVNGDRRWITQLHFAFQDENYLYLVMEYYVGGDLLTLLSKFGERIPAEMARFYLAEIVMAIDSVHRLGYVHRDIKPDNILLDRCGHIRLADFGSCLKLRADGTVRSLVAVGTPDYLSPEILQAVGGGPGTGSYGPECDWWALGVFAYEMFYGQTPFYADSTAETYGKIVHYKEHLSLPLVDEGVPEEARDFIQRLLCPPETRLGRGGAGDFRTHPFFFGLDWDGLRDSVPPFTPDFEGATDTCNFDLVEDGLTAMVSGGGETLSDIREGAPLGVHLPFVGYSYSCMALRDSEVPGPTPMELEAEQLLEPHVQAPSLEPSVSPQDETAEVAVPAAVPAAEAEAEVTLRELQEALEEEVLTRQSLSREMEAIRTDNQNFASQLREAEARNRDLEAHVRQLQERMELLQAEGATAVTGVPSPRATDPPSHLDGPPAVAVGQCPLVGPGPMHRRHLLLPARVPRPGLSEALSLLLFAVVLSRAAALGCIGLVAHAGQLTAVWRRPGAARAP
Description: (§1) We assessed the selectivity of members of this scaffold using the KINOMEscan methodology across a near comprehensive panel of 442 kinases [[18,27]].

panel of 442 kinases [2] = target: T2, panel of 442 kinases (Homo sapiens, UniProt P0C1S8); conditions: kinase WEE2; compound concentration 10 µM
T2 construct: purchased KINOMEscan
T2 sequence (P0C1S8 whole entry): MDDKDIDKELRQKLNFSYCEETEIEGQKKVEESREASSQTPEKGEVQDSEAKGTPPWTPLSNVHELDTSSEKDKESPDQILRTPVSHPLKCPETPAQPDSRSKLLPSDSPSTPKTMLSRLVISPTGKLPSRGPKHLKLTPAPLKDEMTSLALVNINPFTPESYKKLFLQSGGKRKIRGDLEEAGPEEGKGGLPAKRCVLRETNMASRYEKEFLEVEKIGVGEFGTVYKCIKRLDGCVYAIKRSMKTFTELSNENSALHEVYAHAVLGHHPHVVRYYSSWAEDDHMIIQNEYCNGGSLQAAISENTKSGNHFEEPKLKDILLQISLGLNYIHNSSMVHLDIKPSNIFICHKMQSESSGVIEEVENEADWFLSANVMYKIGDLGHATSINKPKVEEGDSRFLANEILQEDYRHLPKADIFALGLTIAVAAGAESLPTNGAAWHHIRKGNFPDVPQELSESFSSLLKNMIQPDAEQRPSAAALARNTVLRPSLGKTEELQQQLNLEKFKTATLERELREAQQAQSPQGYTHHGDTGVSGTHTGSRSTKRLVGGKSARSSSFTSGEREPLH
Description: as §1

panel of 442 kinases [3] = target: T3, panel of 442 kinases (Homo sapiens, UniProt Q15375); conditions: Compound Concentration 10 µM
T3 construct: purchased KINOMEscan
T3 sequence (Q15375 28-998): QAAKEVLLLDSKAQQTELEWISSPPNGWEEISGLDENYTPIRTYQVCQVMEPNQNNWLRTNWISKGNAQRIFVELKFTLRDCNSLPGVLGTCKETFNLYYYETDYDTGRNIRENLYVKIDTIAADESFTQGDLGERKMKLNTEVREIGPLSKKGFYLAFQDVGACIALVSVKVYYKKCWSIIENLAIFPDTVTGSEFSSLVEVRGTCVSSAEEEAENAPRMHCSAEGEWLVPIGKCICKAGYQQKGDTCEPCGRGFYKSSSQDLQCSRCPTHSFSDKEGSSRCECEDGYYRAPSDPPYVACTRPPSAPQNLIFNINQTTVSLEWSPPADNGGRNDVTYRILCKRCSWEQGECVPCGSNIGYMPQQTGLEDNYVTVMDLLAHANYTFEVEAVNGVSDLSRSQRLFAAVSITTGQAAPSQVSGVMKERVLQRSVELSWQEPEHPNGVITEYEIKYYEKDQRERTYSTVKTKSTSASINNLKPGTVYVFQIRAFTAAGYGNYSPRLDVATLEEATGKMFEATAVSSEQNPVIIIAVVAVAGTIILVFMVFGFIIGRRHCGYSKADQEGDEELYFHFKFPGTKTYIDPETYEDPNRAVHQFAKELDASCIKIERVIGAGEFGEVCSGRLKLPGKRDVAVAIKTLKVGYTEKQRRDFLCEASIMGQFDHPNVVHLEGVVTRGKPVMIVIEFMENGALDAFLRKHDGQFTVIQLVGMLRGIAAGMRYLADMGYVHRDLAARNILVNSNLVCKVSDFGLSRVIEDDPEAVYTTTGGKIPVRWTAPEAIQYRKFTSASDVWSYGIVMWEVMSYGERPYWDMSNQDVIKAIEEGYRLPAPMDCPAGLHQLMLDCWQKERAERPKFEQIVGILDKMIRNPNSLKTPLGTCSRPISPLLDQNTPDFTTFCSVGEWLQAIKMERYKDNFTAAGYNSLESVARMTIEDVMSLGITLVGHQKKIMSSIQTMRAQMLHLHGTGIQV
Description: as §1

Row | SMILES | KINOMEscan: DMPK (panel of 442 kinases [1]) | % Ctrl, WEE2 (panel of 442 kinases [2]) | KINOMEscan: EPHA7 (panel of 442 kinases [3])
1 | CCOc1cc(C(=O)N2CCC(N3CCN(C)CC3)CC2)ccc1Nc1ncc2c(n1)N(C1CCCC1)c1ccccc1C(=O)N2C [Compound 26] | 100 | 100 % Ctrl | 100
2 | COc1cc(C(=O)N2CCC(N3CCN(C)CC3)CC2)ccc1Nc1ncc2c(n1)N(C1CCCC1)c1ccccc1C(=O)N2C [Compound 25, 11-cyclopentyl-2-((2-methoxy-4-(4-(4-methylpiperazin-1-yl)piperidine-1-carbonyl)phenyl)amino)-5-methyl-5H-benzo[e]pyrimido[5,4-b][1,4]diazepin-6(11H)-one] | 96 | 100 % Ctrl | 99
3 | COc1cc(C(=O)N2CCC(N3CCN(C)CC3)CC2)ccc1Nc1ncc2c(n1)N1CCc3cccc(c31)C(=O)N2C [Compound 24] | 85 | 100 % Ctrl | 
4 | COc1cc(C(=O)N2CCC(N3CCN(C)CC3)CC2)ccc1Nc1ncc2c(n1)N(C)c1ccccc1C(=O)N2C [15 (LRRK2-IN-1)] | 100 | 100 % Ctrl | 97
